Patent publication US20090137527A1, “Compositions and methods for modulating immune function” (Resolvyx Pharmaceuticals, Inc., priority 2007, published 2009)

What was measured:
[1] = test system: murine DNFB-induced DTH model; experiment: DNFB-induced delayed-type-hypersensitivity (DTH) model, ear swelling; type: in vivo, mouse
Protocol: Ear-swelling (swelling of the skin on the pinnae) was the endpoint of this model. This study was carried out over 6 to 7 days, with events occurring as described below.
Mice (female BALB/c; n=10/group) were immunized with 0.5% of DNFB dissolved in acetone/olive oil. Sensitization was done with the contact allergen, wherein 20 μL of the solution was placed on the footpads of the animals.
[…] The mice were challenged at day 5. 10 μL of a 0.8% DNFB solution was topically applied externally on the right ear of the animal. As control, the left ear was treated the same way with vehicle alone (acetone/olive oil).
Animals were anesthetized with isoflurane and the ear swelling was measured within 24 to 48 hours after challenge using a micrometer. The micrometer calipers were closed around the top portion of the each external ear until resistance from the ear was felt. […]

[2] = test system: mice with established Type II collagen arthritis; experiment: Male DBA/1J mouse established Type II collagen arthritis; type: in vivo
Protocol: Male DBA/1J mice (7-9 weeks old on arrival; at least 7 weeks old at time of first immunization) were housed 5 per cage and were acclimated for enough days after arrival such that all animals were at least 7 weeks old at start of study.
Mice were anesthetized with Isoflurane and given intradermal collagen (2 mg/ml) injections at the base of the tail in a volume of 150 μl (D0 and D21). On days 21-35, onset of arthritis occurred and mice were randomized into treatment groups. Randomization into each group was done after swelling was obviously established in at least one paw, and attempts were made to assure approximately equal mean scores across the groups at time of enrollment. Treatment was initiated after enrollment and continued every day for a total of 10 days as outlined in Table 3. During the ten days of treatment, clinical scores were given for each of the paws (right front, left front, right rear, and left rear) according to the scoring methods provided below. […]
• 0 Normal • 1 Minimal—small areas of resorption, not readily apparent on low magnification, rare osteoclasts in affected joints • 2 Mild—more numerous areas of resorption, not readily apparent on low magnification, osteoclasts more numerous in affected joints • 3 Moderate—obvious resorption of medullary trabecular and cortical bone without full thickness defects in cortex, loss of some medullary trabeculae, lesion apparent on low magnification, osteoclasts more numerous in affected joints • 4 Marked—Full thickness defects in cortical bone, often with distortion of profile of remaining cortical surface, marked loss of medullary bone, numerous osteoclasts, affects most joints • Severe—Full thickness defects in cortical bone and destruction of joint architecture of all joints
Histologic parameters (mean±SE) for each group were analyzed for differences using the Chi Square Test and one way ANOVA. […]

SMILES: CC[C@@H](O)/C=C/C=C\C[C@@H](O)/C=C/C=C/C=C\[C@@H](O)CCCC(=O)O [Compound X]
- maximal efficacy, inhibition of tissue (ear) swelling ([1]; 30 μg/kg i.v., 15 minutes before challenge, ear thickness 24 hours after challenge): 38%
- inhibition of the DTH response, Compound X versus dexamethasone ([1]; dexamethasone 60 minutes prior to DNFB challenge): comparable levels of inhibition
- DNFB-DTH response, two regimens ([1]; i.p. 0.03 mg/kg once daily day 0 to day 5, or single injection on day 5): comparable and significant reduction
- tissue swelling, dose dependence ([1]; i.v., 15 minutes before challenge): dose-dependently reduced
- clinical symptoms of arthritis (clinical scoring in the paws) ([2]; once daily i.v. at both 0.5 and 5.0 μg/kg, vs arthritic control): inhibited
- pannus formation and bone loss (histologic scoring) ([2]; once daily i.v. at both 0.5 and 5.0 μg/kg, vs vehicle control): reduced
- score of bone damage (histologic scoring in joints) ([2]; twice daily 5 μg/kg i.v., vs vehicle control): significant decrease
